Values quoted from earlier work in patent US20150045422A1 (priority 2005, published 2015).

What was measured:
[1] = test system: Herpes Simplex Virus Type 2 (HSV2)

Compound	PSR Potency in Human Cells (IC50) HEp2 (HEp2 (epidermoid)) [ng/mL]	PSR Potency in Human Cells (IC50) HL (HL (lymphocyte)) [ng/mL]	PSR Potency in Human Cells (IC50) HeLa (HeLa (uterine)) [ng/mL]	PSR Potency in Human Cells (IC50) HEK (HEK (kidney)) [ng/mL]	PSR Potency in Human Cells (IC50) HSV2 [1] [ng/mL]	concentrations that did not decrease cell viability (HEp-2 cells)
CC1=C[C@H]2O[C@@H]3[C@H](O)C[C@](C)([C@@]2(CO)[C@H](O)C1=O)[C@]31CO1 [DON, Deoxynivalenol]	250	500	1000	3000	94	–
CC(=O)O[C@@H]1[C@@H](O)[C@H]2O[C@@H]3C=C(C)C(=O)[C@@H](O)[C@]3(CO)[C@]1(C)[C@]21CO1 [FusX, Fusarenon-X]	–	300	100	1000	26	–
CC(=O)OC[C@]12C[C@H](O)C(C)=C[C@H]1O[C@@H]1[C@H](O)[C@@H](OC(C)=O)[C@@]2(C)[C@]12CO2 [NEOS, neosolaniol]	–	50	100	60	52.0	below 200 ng/ml
CC1=C[C@H]2O[C@@H]3[C@H](O)[C@@H](O)[C@](C)([C@@]2(CO)[C@H](O)C1=O)[C@]31CO1 [NIV, Nivalenol]	225	300	300	1000	50	–
Crotocin	250	2000	500	600	–	–
